The results in this text go back to patent publication US12030877B2, “Prostaglandin E synthase inhibitors and methods for utilizing the same” (University of Kentucky Research Foundation, priority 2016, dated 2024).

The first assay deals with T1, mPGES-1 Mouse enzyme (Mus musculus, UniProt Q9JM51).
T1 construct: made in house; host or cells: FreeStyle 293-F cells, crude microsomal preparation
T1 sequence (Q9JM51 1-153): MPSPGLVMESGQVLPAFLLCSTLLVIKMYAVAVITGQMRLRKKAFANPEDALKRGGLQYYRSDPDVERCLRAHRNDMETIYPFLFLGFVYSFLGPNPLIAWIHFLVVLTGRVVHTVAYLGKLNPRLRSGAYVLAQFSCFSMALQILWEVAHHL
Briefly: mPGES-1 enzyme activity assay (PGE2 enzyme immunoassay), mouse enzyme. To be noted: compound at a concentration of 10 μM; read-out: % inhibition of the compound against mPGES-1, Mouse enzyme. Type of assay: biochemical. The protocol: Studies were conducted to characterize the inhibitory activity against recombinant mPGES-1 of the compounds synthesized in accordance with Examples 1-4, and disclosed herein.
Briefly, FreeStyle 293-F cells were cultured following manufacturer's manual in FreeStyle 293 expression medium on orbit rotate shaker in 8% CO2 incubator at 37° C. Cells were transfected with 1.5 μg/mL of mPGES-1/pcDNA3 construct using FreeStyle Max reagent at a cell density of 1×10^6 for 2 days. Transfected cells were collected, washed, and sonicated in TSES buffer (15 mM Tris-HCl, pH 8.0 plus 0.25 M sucrose, 0.1 mM EDTA and 1 mM DTT) on ice. The broken cells were first centrifuged at 12,500×g for 10 min. The supernatant was further centrifuged at 105,000×g for 1 hr at 4° C. The pellet was washed and homogenized in PBS buffer. The crude microsomal mPGES-1 preparation was aliquoted and stored at −80° C. The crude protein concentration was 8 mg/mL.
The enzyme activity assays were performed on ice in 1.5 ml microfuge tubes by using the expressed mPGES-1. The reaction mixture contained: 0.2 M Na2HPO4/NaH2PO4, pH 7.2, 10 μL; 0.1 M GSH, 2.5 μL; diluted microsomal enzyme (80 μg/mL), 1 μL; PGH2 (0.31 mM in DMF), 5 μL; 1 μL inhibitor; and H2O in a final reaction volume of 100 μL. PGH2 was stored in dry ice and used to initiate the reaction.
Compounds were incubated with the enzyme for 15 min at room temperature before the addition of cold PGH2 (1 μM final) to initiate the enzyme reaction. After 30 s, 10 μL of SnCl2 (40 mg/mL) in ethanol was added to stop the reaction. The nonenzymatic conversion of PGH2 to PGE2 was performed in the same buffer devoid of enzyme. The reaction mixture was placed on ice until PGE2 production was determined by the PGE2 enzyme immunoassay as described earlier. IC50 values of the inhibitors were calculated by using the GraphPad Prism 4.0 program. The results are set forth in the tables provided in Examples 7-10.
`CCCCCCCN1C(=O)/C(=C2\SC(=O)N(CC(=O)O)C2=O)c2ccccc21` [II-14]: the inhibition at 10 µM was determined as 67%.
Still for that read-out and setting: as for `CCCCCCCCOc1ccc(-c2nn(-c3ccccc3)cc2/C=C(/C#N)C(=O)O)cc1` [VII-16], the figure is 46%.
Same read-out and setting: the figure for `O=C1NC(=O)C(=Cc2cc(Cl)ccc2OCCCCC2CCCCC2)C(=O)N1` [Compound I-13] is 28%; for `N#C/C(=C/c1cn(-c2ccccc2)nc1-c1ccc(OCc2ccccc2)cc1)C(=O)O` [VII-20] it is 16%; for `O=C1NC(=S)NC(=O)C1=Cc1cn(-c2ccccc2)nc1-c1ccc(OCc2ccccc2)cc1` [VI-18] it is 25%.
For `CCCCCN1C(=O)/C(=C2\SC(=O)N(CC(=O)O)C2=O)c2ccccc21` [II-12], the inhibition at 10 µM worked out at 35%.
Still for that read-out and setting: the figure for `CCCCCCCCCCOc1ccc(-c2nn(-c3ccc(Cl)cc3)cc2C=C2C(=O)NC(=S)NC2=O)cc1` [VI-17] is 56%.

Still in this assay, the particulars now being: recombinant microsomal enzyme; means ± SD, triplicate; read-out: IC50 against mPGES-1, Mouse enzyme.
Consider `O=C(O)CN1C(=O)S/C(=C2\C(=O)N(CC3CCCCC3)c3ccc(-c4ccccc4)cc32)C1=O` [II-18], for which the IC50 is 394 ± 58 nM.
For the compound `CCCCCCCOc1ccc(C=C(C#N)C#N)cc1[N+](=O)[O-]` [Compound V-05], the IC50 was determined as 776 ± 217 nM.
Still for that read-out and setting: as for `O=C(O)CN1C(=O)S/C(=C2\C(=O)N(CCCCC3CCCCC3)c3ccc(-c4ccccc4)cc32)C1=O` [II-26], the figure is 1130 ± 244 nM.
As to `CCCCCCOc1c(Br)cc(C=C(C#N)C#N)cc1OC` [Compound V-13], the IC50 amounted to 1630 ± 250 nM.
As to `O=C1NC(=O)C(=Cc2ccc(OCCCCC3CCCCC3)c(Cl)c2)C(=O)N1` [Compound I-02], the IC50 was determined as 157 ± 31 nM.
On the same count and under the same terms, as for `CCCCCCCOc1c(Br)cc(C=C(C#N)C#N)cc1OC` [Compound V-15], the figure is 357 ± 52 nM; as for `O=C(O)CN1C(=O)S/C(=C2\C(=O)N(CC3CCCCC3)c3ccc(-c4ccc(C#CC5CCCCC5)cc4)cc32)C1=O` [II-22], 685 ± 406 nM; as for `CCCCOc1ccc(C=C(C#N)C#N)cc1OC` [Compound V-22], 1770 ± 241 nM.
On the same count and under the same terms, the figure for `O=C(O)CN1C(=O)S/C(=C2\C(=O)N(CCCOc3ccc4ccccc4c3)c3ccccc32)C1=O` [II-11] is 1020 ± 131 nM; for `O=C(O)CN1C(=O)S/C(=C2\C(=O)N(CC3CCCCC3)c3ccc(-c4ccc(C#Cc5ccccc5)cc4)cc32)C1=O` [II-21] it is 1960 ± 348 nM; for `CCCCCCOc1ccc(C=C(C#N)C#N)cc1[N+](=O)[O-]` [Compound V-04] it is 754 ± 73 nM.
The same measure, in the same setting: as for `O=C(O)CN1C(=O)S/C(=C2\C(=O)N(CCCC3CCCCC3)c3ccccc32)C1=O` [II-08], the figure is 1520 ± 317 nM; as for `CCCCCCCCOc1ccc(C=C(C#N)C#N)cc1[N+](=O)[O-]` [Compound V-06], 716 ± 120 nM.
Turning to `CCCCCCCCCCCCCCCCCCOc1c(Br)cc(C=C(C#N)C#N)cc1OC` [Compound V-20], the IC50 stood at 270 ± 64 nM.
The same measure, in the same setting: as for `CCCCCCCCCN1C(=O)/C(=C2\SC(=O)N(CC(=O)O)C2=O)c2ccccc21` [II-16], the figure is 1400 ± 217 nM.

For another assay, the target named is T2, mPGES-1 (Homo sapiens, UniProt O14684).
T2 sequence (O14684 1-152): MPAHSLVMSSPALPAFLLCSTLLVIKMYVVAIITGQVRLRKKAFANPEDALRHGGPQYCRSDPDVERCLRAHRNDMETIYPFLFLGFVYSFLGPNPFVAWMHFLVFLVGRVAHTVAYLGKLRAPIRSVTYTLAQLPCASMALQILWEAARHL
Briefly: mPGES-1 enzyme activity assay (PGE2 enzyme immunoassay), human enzyme. Type of assay: biochemical. The arrangement: made in house; host or cells: FreeStyle 293-F cells, crude microsomal preparation. Particulars: IC50 against mPGES-1, Human enzyme, recombinant microsomal enzyme; means ± SD, triplicate. In short, it runs like this:
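Crude microsomal enzyme from transfected FreeStyle 293-F cells, preincubated 15 min at room temperature with compound in phosphate pH 7.2 with GSH. Reaction started with 1 μM PGH2, stopped after 30 s with SnCl2; non-enzymatic background without enzyme. PGE2 by enzyme immunoassay; IC50 computed.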
As for `O=C1NC(=S)NC(=O)C1=Cc1cn(-c2ccccc2)nc1-c1ccc(OCc2ccccc2)cc1` [VI-18], the IC50 is 797 ± 160 nM.

Still in this assay, the particulars now being: recombinant microsomal enzyme; means ± SD, triplicate; read-out: IC50 against mPGES-1, Human enzyme.
Regarding `O=C(O)CN1C(=O)S/C(=C2\C(=O)N(CC3CCCCC3)c3ccc(-c4ccccc4)cc32)C1=O` [II-18], the IC50 stood at 221 ± 47 nM.
Still for that read-out and setting: as for `CCCCCCCOc1ccc(C=C(C#N)C#N)cc1[N+](=O)[O-]` [Compound V-05], the figure is 135 ± 16 nM.
With `O=C(O)CN1C(=O)S/C(=C2\C(=O)N(CCCCC3CCCCC3)c3ccc(-c4ccccc4)cc32)C1=O` [II-26], the IC50 worked out at 13 ± 3 nM.
Still for that read-out and setting: as for `CCCCCCOc1c(Br)cc(C=C(C#N)C#N)cc1OC` [Compound V-13], the figure is 181 ± 33 nM; as for `O=C1NC(=O)C(=Cc2ccc(OCCCCC3CCCCC3)c(Cl)c2)C(=O)N1` [Compound I-02], 33 ± 3 nM.
Still for that read-out and setting: as for `CCCCCCCOc1c(Br)cc(C=C(C#N)C#N)cc1OC` [Compound V-15], the figure is 83 ± 14 nM; as for `O=C(O)CN1C(=O)S/C(=C2\C(=O)N(CC3CCCCC3)c3ccc(-c4ccc(C#CC5CCCCC5)cc4)cc32)C1=O` [II-22], 25 ± 5 nM; as for `CCCCOc1ccc(C=C(C#N)C#N)cc1OC` [Compound V-22], 348 ± 100 nM.
On to `O=C(O)CN1C(=O)S/C(=C2\C(=O)N(CCCOc3ccc4ccccc4c3)c3ccccc32)C1=O` [II-11], for which the IC50 is 1680 ± 168 nM.
On the same count and under the same terms, the figure for `O=C(O)CN1C(=O)S/C(=C2\C(=O)N(CC3CCCCC3)c3ccc(-c4ccc(C#Cc5ccccc5)cc4)cc32)C1=O` [II-21] is 91 ± 23 nM; for `CCCCCCOc1ccc(C=C(C#N)C#N)cc1[N+](=O)[O-]` [Compound V-04] it is 285 ± 40 nM; for `O=C(O)CN1C(=O)S/C(=C2\C(=O)N(CCCC3CCCCC3)c3ccccc32)C1=O` [II-08] it is 253 ± 30 nM.
Same read-out and setting: as for `CCCCCCCN1C(=O)/C(=C2\SC(=O)N(CC(=O)O)C2=O)c2ccccc21` [II-14], the figure is 324 ± 44 nM.
Same read-out and setting: the figure for `CCCCCCCCOc1ccc(-c2nn(-c3ccccc3)cc2/C=C(/C#N)C(=O)O)cc1` [VII-16] is 209 ± 42 nM; for `CCCCCCCCOc1ccc(C=C(C#N)C#N)cc1[N+](=O)[O-]` [Compound V-06] it is 89 ± 12 nM; for `O=C1NC(=O)C(=Cc2cc(Cl)ccc2OCCCCC2CCCCC2)C(=O)N1` [Compound I-13] it is 87 ± 27 nM.
As for `N#C/C(=C/c1cn(-c2ccccc2)nc1-c1ccc(OCc2ccccc2)cc1)C(=O)O` [VII-20], the IC50 amounted to 806 ± 162 nM.
With `CCCCCN1C(=O)/C(=C2\SC(=O)N(CC(=O)O)C2=O)c2ccccc21` [II-12], the IC50 came out at 1660 ± 168 nM.
The same measure, in the same setting: the figure for `CCCCCCCCCCOc1ccc(-c2nn(-c3ccc(Cl)cc3)cc2C=C2C(=O)NC(=S)NC2=O)cc1` [VI-17] is 93 ± 14 nM; for `CCCCCCCCCCCCCCCCCCOc1c(Br)cc(C=C(C#N)C#N)cc1OC` [Compound V-20] it is 50 ± 9 nM.
Same read-out and setting: the figure for `CCCCCCCCCN1C(=O)/C(=C2\SC(=O)N(CC(=O)O)C2=O)c2ccccc21` [II-16] is 199 ± 32 nM.

As usually defined, the inhibition is how much of the control response was suppressed. A word on the IC50: it is the midpoint of a concentration-inhibition curve.
